According to the kinase profiling compilation of Christmann-Franck et al. (2016):
Several values for one entry are separate records, joined by “and”; a condition that tells them apart may be missing. Equal entries are not always repeated.

Tests used:
AURKB (human) = AURKB (human) (UniProt Q96GD4)
BRSK2 (human) = BRSK2 (human) (UniProt Q8IWQ3)
BTK (human) = BTK (human) (UniProt Q06187)
CHEK2 (human) = CHEK2 (human) (UniProt O96017)
CSNK2A1 (human) = CSNK2A1 (human) (UniProt P68400); settings: compound 10.0 µM
DYRK2 (human) = DYRK2 (human) (UniProt Q92630)
DYRK3 (human) = DYRK3 (human) (UniProt O43781)
EEF2K (human) = EEF2K (human) (UniProt O00418)
FLT1 (human) = FLT1 (human) (UniProt P17948)
GSK3B (human) = GSK3B (human) (UniProt P49841)
IKBKB (human) = IKBKB (human) (UniProt O14920)
IKBKE (human) = IKBKE (human) (UniProt Q14164)
INSRR (human) = INSRR (human) (UniProt P14616); settings: compound 10.0 µM
MAPK14 (human) = MAPK14 (human) (UniProt Q16539)
MAPK15 (human) = MAPK15 (human) (UniProt Q8TD08)
MAPK3 (human) = MAPK3 (human) (UniProt P27361)
MAPK8 (human) = MAPK8 (human) (UniProt P45983); settings: compound 1.0 µM
MAPKAPK5 (human) = MAPKAPK5 (human) (UniProt Q8IW41)
MARK3 (human) = MARK3 (human) (UniProt P27448)
MST4 (human) = MST4 (human) (UniProt Q9P289)
NEK2 (human) = NEK2 (human) (UniProt P51955)
PAK6 (human) = PAK6 (human) (UniProt Q9NQU5)
PDPK1 (human) = PDPK1 (human) (UniProt O15530)
PIM1 (human) = PIM1 (human) (UniProt P11309)
PRKCA (human) = PRKCA (human) (UniProt P17252)
PRKCZ (human) = PRKCZ (human) (UniProt Q05513)
RPS6KA1 KD1 KD2 (human) = RPS6KA1 KD1 KD2 (human) (UniProt Q15418)
RPS6KA3 KD1 KD2 (human) = RPS6KA3 KD1 KD2 (human) (UniProt P51812)
[1] = system: RPS6KB1 (human), P23443 [T412E]
[2] = system: SGK1 (human), O00141 [S422D]
SRC (human) = SRC (human) (UniProt P12931)
SYK (human) = SYK (human) (UniProt P43405)
TBK1 (human) = TBK1 (human) (UniProt Q9UHD2)
YES1 (human) = YES1 (human) (UniProt P07947)

PDPK1 (human), sequence (O15530 whole entry, looked up): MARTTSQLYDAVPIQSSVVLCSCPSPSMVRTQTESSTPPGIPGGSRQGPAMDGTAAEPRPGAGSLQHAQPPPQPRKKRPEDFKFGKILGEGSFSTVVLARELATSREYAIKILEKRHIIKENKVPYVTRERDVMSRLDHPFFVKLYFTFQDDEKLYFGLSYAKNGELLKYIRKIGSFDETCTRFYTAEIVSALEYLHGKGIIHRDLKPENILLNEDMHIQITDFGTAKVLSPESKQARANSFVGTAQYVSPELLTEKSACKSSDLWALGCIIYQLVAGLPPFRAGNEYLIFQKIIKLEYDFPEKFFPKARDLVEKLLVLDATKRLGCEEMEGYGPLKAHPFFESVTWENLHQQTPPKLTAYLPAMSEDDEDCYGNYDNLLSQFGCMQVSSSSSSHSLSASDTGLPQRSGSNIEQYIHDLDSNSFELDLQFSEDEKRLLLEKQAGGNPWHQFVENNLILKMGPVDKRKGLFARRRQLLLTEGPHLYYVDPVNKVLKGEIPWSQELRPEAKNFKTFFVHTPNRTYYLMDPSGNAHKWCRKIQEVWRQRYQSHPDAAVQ
SGK1 (human), O00141 [S422D], sequence (O00141 whole entry S422D, looked up): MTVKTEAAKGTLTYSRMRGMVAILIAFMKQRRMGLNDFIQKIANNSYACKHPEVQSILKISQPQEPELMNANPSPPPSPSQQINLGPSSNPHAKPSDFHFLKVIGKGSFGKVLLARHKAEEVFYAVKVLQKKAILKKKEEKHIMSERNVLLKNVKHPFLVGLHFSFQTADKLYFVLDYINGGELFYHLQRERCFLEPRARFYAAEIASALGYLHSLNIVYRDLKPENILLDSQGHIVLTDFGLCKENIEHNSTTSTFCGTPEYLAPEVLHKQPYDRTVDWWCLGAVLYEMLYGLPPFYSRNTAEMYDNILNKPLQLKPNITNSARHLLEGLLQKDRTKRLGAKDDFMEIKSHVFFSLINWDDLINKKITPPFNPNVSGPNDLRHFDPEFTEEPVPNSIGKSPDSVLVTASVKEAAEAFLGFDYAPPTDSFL
MAPKAPK5 (human), sequence (Q8IW41 whole entry, looked up): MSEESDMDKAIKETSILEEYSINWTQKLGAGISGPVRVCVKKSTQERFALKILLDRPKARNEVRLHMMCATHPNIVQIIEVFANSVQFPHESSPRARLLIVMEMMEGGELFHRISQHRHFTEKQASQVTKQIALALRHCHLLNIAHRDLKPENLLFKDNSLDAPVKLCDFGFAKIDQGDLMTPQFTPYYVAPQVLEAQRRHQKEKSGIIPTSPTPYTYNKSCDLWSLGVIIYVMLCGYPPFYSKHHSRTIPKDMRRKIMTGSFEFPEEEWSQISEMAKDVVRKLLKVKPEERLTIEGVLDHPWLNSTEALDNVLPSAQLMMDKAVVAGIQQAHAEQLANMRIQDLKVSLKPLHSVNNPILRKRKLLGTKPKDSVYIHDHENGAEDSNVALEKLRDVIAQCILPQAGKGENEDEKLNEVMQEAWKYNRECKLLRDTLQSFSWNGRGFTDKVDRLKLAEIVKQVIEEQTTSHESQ
EEF2K (human), sequence (O00418 whole entry, looked up): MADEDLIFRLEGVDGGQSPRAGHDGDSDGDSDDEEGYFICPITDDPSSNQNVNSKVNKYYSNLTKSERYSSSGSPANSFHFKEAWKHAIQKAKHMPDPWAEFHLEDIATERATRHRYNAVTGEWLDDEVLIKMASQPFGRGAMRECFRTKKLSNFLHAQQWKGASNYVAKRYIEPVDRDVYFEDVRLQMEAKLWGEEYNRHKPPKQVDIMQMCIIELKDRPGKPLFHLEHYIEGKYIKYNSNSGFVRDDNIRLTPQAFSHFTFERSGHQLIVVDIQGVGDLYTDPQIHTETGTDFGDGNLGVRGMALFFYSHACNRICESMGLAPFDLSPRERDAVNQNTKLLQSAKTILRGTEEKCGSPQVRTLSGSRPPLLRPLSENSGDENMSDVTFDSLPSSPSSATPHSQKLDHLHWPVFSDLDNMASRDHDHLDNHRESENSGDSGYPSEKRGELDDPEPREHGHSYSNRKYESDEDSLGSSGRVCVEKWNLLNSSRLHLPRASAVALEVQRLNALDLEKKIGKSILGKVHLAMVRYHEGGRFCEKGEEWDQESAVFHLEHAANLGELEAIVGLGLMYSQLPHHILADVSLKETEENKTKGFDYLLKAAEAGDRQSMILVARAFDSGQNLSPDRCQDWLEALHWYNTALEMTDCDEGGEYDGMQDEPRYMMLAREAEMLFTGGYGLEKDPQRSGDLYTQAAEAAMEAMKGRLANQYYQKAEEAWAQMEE
MST4 (human), sequence (Q9P289 whole entry, looked up): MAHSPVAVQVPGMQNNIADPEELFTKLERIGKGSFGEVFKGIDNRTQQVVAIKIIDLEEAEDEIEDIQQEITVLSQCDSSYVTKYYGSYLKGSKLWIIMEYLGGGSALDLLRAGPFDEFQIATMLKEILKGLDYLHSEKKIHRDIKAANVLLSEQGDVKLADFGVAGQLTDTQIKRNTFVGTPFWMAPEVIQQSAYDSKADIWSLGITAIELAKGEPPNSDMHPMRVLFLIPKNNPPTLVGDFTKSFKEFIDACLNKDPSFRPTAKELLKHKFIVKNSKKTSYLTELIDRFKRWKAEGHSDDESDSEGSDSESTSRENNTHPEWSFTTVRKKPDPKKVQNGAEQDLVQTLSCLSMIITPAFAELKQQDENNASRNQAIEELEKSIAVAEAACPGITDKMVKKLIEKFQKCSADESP
BRSK2 (human), sequence (Q8IWQ3 whole entry, looked up): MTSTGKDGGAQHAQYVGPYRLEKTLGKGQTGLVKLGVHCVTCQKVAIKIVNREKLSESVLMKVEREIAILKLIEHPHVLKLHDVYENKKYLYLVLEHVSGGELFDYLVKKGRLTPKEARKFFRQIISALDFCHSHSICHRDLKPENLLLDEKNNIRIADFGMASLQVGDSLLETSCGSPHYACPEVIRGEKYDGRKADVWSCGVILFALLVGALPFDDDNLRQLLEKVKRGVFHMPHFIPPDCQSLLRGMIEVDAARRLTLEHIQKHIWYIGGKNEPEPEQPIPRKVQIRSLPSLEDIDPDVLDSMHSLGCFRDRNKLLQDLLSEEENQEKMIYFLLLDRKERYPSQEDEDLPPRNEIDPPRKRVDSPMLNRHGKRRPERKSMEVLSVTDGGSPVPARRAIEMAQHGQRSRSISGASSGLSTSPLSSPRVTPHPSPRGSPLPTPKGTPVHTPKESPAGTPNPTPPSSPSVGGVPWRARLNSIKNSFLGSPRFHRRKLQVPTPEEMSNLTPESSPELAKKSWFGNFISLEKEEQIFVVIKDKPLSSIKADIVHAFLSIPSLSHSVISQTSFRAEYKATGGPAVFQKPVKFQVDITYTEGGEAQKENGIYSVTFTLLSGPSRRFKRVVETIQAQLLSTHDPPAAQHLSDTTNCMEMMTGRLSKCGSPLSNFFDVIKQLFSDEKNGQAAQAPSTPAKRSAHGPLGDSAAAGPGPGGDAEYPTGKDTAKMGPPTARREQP
MAPK15 (human), sequence (Q8TD08 whole entry, looked up): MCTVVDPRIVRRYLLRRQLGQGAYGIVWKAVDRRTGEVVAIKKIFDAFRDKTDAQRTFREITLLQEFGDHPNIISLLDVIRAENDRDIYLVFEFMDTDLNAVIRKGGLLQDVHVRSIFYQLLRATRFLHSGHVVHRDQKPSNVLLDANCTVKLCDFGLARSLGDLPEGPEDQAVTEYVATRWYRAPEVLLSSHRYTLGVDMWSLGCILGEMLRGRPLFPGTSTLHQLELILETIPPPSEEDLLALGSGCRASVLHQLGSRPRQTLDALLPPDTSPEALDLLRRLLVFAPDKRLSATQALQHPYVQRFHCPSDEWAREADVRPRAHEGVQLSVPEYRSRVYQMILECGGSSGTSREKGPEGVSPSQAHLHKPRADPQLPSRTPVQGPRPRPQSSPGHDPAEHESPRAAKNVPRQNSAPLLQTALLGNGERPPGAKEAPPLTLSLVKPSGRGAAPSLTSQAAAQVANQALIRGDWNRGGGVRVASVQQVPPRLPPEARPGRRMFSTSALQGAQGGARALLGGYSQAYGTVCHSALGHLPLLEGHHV
CHEK2 (human), sequence (O96017 whole entry, looked up): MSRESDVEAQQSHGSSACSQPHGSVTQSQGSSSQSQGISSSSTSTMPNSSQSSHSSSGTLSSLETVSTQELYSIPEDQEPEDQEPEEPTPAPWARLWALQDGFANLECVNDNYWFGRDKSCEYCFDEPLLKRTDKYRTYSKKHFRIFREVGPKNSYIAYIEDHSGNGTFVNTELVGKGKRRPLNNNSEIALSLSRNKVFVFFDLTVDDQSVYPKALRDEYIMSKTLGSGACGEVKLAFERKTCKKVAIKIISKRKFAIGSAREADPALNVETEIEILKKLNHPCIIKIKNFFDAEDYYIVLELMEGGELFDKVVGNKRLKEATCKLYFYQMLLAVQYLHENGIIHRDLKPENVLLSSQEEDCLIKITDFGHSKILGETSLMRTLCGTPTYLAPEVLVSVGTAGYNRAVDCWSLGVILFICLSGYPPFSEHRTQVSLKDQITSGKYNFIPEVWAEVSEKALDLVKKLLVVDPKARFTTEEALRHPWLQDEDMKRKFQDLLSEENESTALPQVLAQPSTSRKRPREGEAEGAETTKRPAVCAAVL
NEK2 (human), sequence (P51955 whole entry, looked up): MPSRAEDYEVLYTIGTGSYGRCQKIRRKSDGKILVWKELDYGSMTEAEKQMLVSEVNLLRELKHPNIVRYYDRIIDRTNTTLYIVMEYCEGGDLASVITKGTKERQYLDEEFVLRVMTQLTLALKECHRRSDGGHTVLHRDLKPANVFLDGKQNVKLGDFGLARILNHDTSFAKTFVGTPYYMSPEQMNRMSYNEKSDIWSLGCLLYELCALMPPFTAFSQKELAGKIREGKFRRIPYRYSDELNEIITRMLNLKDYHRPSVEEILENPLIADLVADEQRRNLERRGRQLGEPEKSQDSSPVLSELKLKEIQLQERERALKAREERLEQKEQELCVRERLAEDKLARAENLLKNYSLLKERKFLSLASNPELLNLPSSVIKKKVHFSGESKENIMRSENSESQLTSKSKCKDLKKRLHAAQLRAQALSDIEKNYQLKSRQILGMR

CCC(=O)N1CCN(c2ccc(-n3c(=O)ccc4cnc5ccc(-c6cnc7ccccc7c6)cc5c43)cc2C(F)(F)F)CC1
per cent of control (AURKB (human); compound 1.0 µM): 107%
per cent of control (AURKB (human); compound 10.0 µM): 90%
per cent of control (BRSK2 (human); compound 1.0 µM): 102%
per cent of control (BRSK2 (human); compound 10.0 µM): 104%
per cent of control (BTK (human); compound 1.0 µM): 104%
per cent of control (BTK (human); compound 10.0 µM): 56%
per cent of control (CHEK2 (human); compound 1.0 µM): 90%
per cent of control (CHEK2 (human); compound 10.0 µM): 83%
per cent of control (CSNK2A1 (human)): 95%
per cent of control (DYRK2 (human); compound 1.0 µM): 99%
per cent of control (DYRK2 (human); compound 10.0 µM): 99%
per cent of control (DYRK3 (human); compound 1.0 µM): 88%
per cent of control (DYRK3 (human); compound 10.0 µM): 52%
per cent of control (EEF2K (human); compound 1.0 µM): 118%
per cent of control (EEF2K (human); compound 10.0 µM): 111%
per cent of control (FLT1 (human); compound 1.0 µM): 108%
per cent of control (FLT1 (human); compound 10.0 µM): 84%
per cent of control (GSK3B (human); compound 1.0 µM): 79%
per cent of control (GSK3B (human); compound 10.0 µM): 49%
per cent of control (IKBKB (human); compound 1.0 µM): 109%
per cent of control (IKBKB (human); compound 10.0 µM): 63%
per cent of control (IKBKE (human); compound 1.0 µM): 96%
per cent of control (IKBKE (human); compound 10.0 µM): 85%
per cent of control (INSRR (human)): 73%
per cent of control (MAPK14 (human); compound 1.0 µM): 95%
per cent of control (MAPK14 (human); compound 10.0 µM): 99%
per cent of control (MAPK15 (human); compound 1.0 µM): 78%
per cent of control (MAPK15 (human); compound 10.0 µM): 46%
per cent of control (MAPK3 (human); compound 1.0 µM): 99%
per cent of control (MAPK3 (human); compound 10.0 µM): 96%
per cent of control (MAPK8 (human)): 98%
per cent of control (MAPKAPK5 (human); compound 1.0 µM): 118%
per cent of control (MAPKAPK5 (human); compound 10.0 µM): 49%
per cent of control (MARK3 (human); compound 1.0 µM): 99%
per cent of control (MARK3 (human); compound 10.0 µM): 98%
per cent of control (MST4 (human); compound 1.0 µM): 96%
per cent of control (MST4 (human); compound 10.0 µM): 89%
per cent of control (NEK2 (human); compound 1.0 µM): 88%
per cent of control (NEK2 (human); compound 10.0 µM): 99%
per cent of control (PAK6 (human); compound 1.0 µM): 110%
per cent of control (PAK6 (human); compound 10.0 µM): 80%
per cent of control (PDPK1 (human); compound 1.0 µM): 100% and 117%
per cent of control (PDPK1 (human); compound 10.0 µM): 98% and 101%
per cent of control (PIM1 (human); compound 1.0 µM): 82%
per cent of control (PIM1 (human); compound 10.0 µM): 24%
per cent of control (PRKCA (human); compound 1.0 µM): 83%
per cent of control (PRKCA (human); compound 10.0 µM): 68%
per cent of control (PRKCZ (human); compound 1.0 µM): 121%
per cent of control (PRKCZ (human); compound 10.0 µM): 106%
per cent of control (RPS6KA1 KD1 KD2 (human); compound 1.0 µM): 93%
per cent of control (RPS6KA1 KD1 KD2 (human); compound 10.0 µM): 71%
per cent of control (RPS6KA3 KD1 KD2 (human); compound 1.0 µM): 96%
per cent of control (RPS6KA3 KD1 KD2 (human); compound 10.0 µM): 81%
per cent of control ([1]; compound 1.0 µM): 97%
per cent of control ([1]; compound 10.0 µM): 81%
per cent of control ([2]; compound 1.0 µM): 79%
per cent of control ([2]; compound 10.0 µM): 60%
per cent of control (SRC (human); compound 1.0 µM): 60%
per cent of control (SRC (human); compound 10.0 µM): 52%
per cent of control (SYK (human); compound 1.0 µM): 131%
per cent of control (SYK (human); compound 10.0 µM): 68%
per cent of control (TBK1 (human); compound 1.0 µM): 96%
per cent of control (TBK1 (human); compound 10.0 µM): 87%
per cent of control (YES1 (human); compound 1.0 µM): 113%
per cent of control (YES1 (human); compound 10.0 µM): 78%
